Laboratory results published in ChEMBL document CHEMBL1201862, “PubChem BioAssay data set” (2004).
One block for each compound: values may come before it. Active and inactive are the calls of the source.

What was measured:
[1] = inhibitors of intracellular T. cruzi replication, confirmation, NIH3T3 host cells, beta-gal luminescence (AID 2044); type: functional, cell-based;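 note: intracellular parasites grown in NIH/3T3 mouse fibroblasts as host cells; luminescent beta-galactosidase reporter signal from transgenic T. cruzi replicating inside host cells; inhibitors lower the luminescence signal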
[2] = molecular target: Sphingosine 1-phosphate receptor 1 (Homo sapiens, UniProt P21453); type: functional;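 note: Tango beta-arrestin reporter U2OS cells stimulated with S1P near its EC80; inhibitor potency meaning antagonism of receptor activation by the natural agonist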
[3] = cytotoxicity in KRAS-transformed pancreatic duct cells, primary screen, cell-based, fluorescence, HTS (AID 431); type: functional; conditions: Homo sapiens;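 note: cell line used: HPDE-C7K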
[4] = cytotoxicity in HPDE-C7 cells, cell-based, fluorescence, HTS (AID 430); type: functional; conditions: Homo sapiens
[5] = cytotoxicity toward NIH3T3 fibroblasts, dose response, counter-screen, cell-based, ATP luminescence, mouse fibroblasts (AID 2010); type: functional;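 note: cells exposed to compound for about 90 hours before reading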
[6] = molecular target: Sphingosine 1-phosphate receptor 4 (Homo sapiens, UniProt O95977); test: Fluorescence dose response cell-based high throughput screening assay for antagonists of the Sphingosine 1-Phosphate Receptor 4 (S1P4). [Related pubchem assays: 1524 (Confirmation in triplicates.), 1510 (Primary screen.)]; type: functional
[7] = NIH-3T3 fibroblast cytotoxicity, dose response, cytotoxicity control, cell-based, fluorescence, Alamar Blue, secondary assay (AID 2327); type: functional;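 note: NIH-3T3 mouse fibroblasts cultured with fluconazole at 8 µg/mL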
[8] = C. albicans growth with fluconazole, confirmation, fluorescence, retest (AID 2467); type: functional, cell-based
[9] = inhibitors of Bluetongue virus cytopathic effect, confirmation, arbovirus, BSR cells (AID 1250); type: functional;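 note: protection from viral cytopathic effect measured as cell viability by ATP luminescence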
Estrogen receptor beta [10] = molecular target: T1, Estrogen receptor beta (Homo sapiens, UniProt Q92731); test: ERβ–SRC-3 coactivator interaction inhibitors, confirmation, orthogonal assay, biochemical, ELISA, streptavidin-HRP readout (AID 1060)
[11] = molecular target: Glutathione-S-transferase (Schistosoma japonicum, UniProt Q26513); test: biotin-GST/anti-GST TR-FRET signal inhibitors, dose response, artefact control for Vif-APOBEC3G degradation inhibitor project, biochemical (AID 1117362); type: functional
Estrogen receptor beta [12] = molecular target: T1, Estrogen receptor beta
Caspase-3 = molecular target: T2, Caspase-3 (Homo sapiens, UniProt P42574); type: functional;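 note: Dose-response selectivity test against caspase-3 for candidate inhibitors of sentrin-specific proteases (SENPs)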
T2 sequence (P42574 whole entry): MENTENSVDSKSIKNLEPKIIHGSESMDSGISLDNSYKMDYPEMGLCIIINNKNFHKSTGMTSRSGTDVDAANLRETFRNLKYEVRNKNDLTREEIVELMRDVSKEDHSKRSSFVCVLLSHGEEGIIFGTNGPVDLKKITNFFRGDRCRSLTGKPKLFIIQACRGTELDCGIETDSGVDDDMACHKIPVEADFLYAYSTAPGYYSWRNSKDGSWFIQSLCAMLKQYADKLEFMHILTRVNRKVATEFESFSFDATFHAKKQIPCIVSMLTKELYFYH

Genome polyprotein = Genome polyprotein (dengue virus type 2, UniProt P29990); test: Dengue-2 NS5 methyltransferase inhibitors, primary screen, biochemical, confirmation dose response (AID 588689); type: functional
Bcl-2-like protein 10 = molecular target: T3, Bcl-2-like protein 10 (Homo sapiens, UniProt Q9HD36); test: displacers of TR3 peptide from Bcl-B, primary screen, selectivity assay for Bfl-1 inhibitor project, biochemical, fluorescence polarization, FITC-TR3 peptide (AID 748);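 note: fluorescence polarization from a fluorescein-labelled TR3 peptide binding purified Bcl-B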
T3 sequence (Q9HD36 whole entry): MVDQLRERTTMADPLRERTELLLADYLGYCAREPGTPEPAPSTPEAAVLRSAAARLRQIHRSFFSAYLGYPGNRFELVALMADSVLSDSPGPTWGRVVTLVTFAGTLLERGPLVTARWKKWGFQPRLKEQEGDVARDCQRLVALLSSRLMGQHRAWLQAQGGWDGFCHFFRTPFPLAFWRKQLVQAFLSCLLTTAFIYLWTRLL

[13] = THP-1 cell cytotoxicity, dose response, cytotoxicity control for Vif-APOBEC3G degradation inhibitor project, THP-1 cells (AID 1117359); type: functional; conditions: Human immunodeficiency virus 1, THP-1
Vero = Vero cell cytotoxicity, cytotoxicity control for flavivirus capping enzyme inhibitors (AID 588742); type: functional; conditions: Chlorocebus sabaeus
[14] = molecular target: T4, Sentrin-specific protease 8 (Homo sapiens, UniProt Q96LD8); type: functional;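 note: luminescence read-out of SENP8 inhibition, dose-response confirmation following an ultra-high-throughput screen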
T4 sequence (Q96LD8 whole entry): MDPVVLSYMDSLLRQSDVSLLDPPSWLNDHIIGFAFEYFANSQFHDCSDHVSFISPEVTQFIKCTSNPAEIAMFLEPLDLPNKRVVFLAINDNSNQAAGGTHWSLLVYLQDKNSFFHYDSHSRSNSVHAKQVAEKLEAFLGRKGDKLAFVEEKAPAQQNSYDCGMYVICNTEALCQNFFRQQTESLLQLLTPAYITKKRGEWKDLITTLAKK

[15] = molecular target: T5, Sentrin-specific protease 7 (Homo sapiens, UniProt Q9BQF6); type: functional;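 note: Luminescence-based dose-response confirmation of ultra-high-throughput screening hits, measuring inhibition of SENP7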
T5 sequence (Q9BQF6 whole entry): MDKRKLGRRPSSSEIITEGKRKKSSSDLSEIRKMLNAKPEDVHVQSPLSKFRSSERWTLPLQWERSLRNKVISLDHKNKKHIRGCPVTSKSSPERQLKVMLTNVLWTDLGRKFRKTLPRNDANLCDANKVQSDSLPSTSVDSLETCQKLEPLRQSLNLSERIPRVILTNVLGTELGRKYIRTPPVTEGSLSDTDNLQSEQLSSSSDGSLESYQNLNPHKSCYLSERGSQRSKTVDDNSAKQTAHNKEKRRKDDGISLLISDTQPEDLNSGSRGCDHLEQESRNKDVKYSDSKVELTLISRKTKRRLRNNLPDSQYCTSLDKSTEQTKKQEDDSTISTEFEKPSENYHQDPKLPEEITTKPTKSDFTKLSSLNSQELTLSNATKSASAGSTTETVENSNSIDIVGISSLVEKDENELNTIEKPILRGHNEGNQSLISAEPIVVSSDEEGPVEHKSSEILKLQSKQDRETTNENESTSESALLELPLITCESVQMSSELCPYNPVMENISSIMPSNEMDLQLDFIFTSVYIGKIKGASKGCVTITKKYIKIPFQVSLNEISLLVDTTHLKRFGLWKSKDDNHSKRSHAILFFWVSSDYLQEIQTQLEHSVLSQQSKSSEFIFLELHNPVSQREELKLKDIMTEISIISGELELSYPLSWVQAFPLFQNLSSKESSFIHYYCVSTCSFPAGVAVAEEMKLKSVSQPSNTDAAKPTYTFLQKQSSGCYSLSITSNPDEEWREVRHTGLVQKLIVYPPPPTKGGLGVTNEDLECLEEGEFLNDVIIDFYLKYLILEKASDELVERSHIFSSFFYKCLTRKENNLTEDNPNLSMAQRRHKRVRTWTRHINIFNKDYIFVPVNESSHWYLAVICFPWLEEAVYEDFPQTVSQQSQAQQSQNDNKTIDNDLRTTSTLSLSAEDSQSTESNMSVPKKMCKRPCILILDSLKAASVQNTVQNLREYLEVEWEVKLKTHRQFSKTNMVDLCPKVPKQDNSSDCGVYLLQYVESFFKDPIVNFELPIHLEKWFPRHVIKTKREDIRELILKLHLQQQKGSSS

[16] = molecular target: T6, Sentrin-specific protease 6 (Homo sapiens, UniProt Q9GZR1); type: functional;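 note: Luminescence-based dose-response confirmatory assay of SENP6 inhibition, following up an ultra-high-throughput screen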
T6 sequence (Q9GZR1 whole entry): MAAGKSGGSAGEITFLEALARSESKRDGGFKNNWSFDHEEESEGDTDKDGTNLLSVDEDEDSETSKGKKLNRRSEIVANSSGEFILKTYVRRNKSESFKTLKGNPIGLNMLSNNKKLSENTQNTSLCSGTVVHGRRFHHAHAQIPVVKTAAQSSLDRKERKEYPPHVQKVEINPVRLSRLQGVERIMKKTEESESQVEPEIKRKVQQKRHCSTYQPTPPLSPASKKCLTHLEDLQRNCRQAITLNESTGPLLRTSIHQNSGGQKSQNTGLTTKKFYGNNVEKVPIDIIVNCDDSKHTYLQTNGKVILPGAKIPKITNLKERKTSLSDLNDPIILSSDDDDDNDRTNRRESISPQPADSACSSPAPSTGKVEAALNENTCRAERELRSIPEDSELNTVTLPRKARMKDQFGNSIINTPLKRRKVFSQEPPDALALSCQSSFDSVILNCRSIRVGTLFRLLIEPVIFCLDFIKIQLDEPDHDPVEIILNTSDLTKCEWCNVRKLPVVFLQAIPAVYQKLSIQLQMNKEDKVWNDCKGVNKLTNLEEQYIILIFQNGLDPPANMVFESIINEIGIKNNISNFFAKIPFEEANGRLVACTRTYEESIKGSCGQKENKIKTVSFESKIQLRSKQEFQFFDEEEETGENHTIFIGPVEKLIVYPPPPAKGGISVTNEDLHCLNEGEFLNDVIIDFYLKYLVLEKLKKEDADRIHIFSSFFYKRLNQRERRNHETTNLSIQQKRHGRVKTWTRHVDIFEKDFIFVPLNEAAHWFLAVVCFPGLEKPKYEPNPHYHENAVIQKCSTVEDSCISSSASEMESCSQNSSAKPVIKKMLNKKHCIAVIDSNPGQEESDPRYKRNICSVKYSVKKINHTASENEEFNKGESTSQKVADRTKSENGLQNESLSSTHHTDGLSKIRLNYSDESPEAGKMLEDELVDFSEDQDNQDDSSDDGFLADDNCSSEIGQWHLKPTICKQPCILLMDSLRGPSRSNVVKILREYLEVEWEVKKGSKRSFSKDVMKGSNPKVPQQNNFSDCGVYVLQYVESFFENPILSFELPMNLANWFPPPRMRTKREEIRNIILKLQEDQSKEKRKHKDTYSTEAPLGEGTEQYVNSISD

[17] = molecular target: Neuropeptide Y receptor type 2 (Homo sapiens, UniProt P49146); type: functional, cell-based;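 note: HEK293 cells expressing the receptor and a CNG channel; stimulus was NPY near EC95 followed by isoproterenol to raise cAMP; antagonist potency measured as restoring cAMP signal that NPY suppresses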
[18] = molecular target: Neuropeptide Y receptor type 1 (Homo sapiens, UniProt P25929); type: functional;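 note: HEK293 cells with a CNG channel challenged with NPY then isoproterenol; potency as antagonist that reverses NPY suppression of cAMP signal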
Estrogen receptor = molecular target: T7, Estrogen receptor (Homo sapiens, UniProt P03372); test: potentiators of ERα–SRC-1 coactivator binding, dose response, biochemical, TR-FRET, ERα LBD (AID 737)
T7 sequence (P03372 whole entry): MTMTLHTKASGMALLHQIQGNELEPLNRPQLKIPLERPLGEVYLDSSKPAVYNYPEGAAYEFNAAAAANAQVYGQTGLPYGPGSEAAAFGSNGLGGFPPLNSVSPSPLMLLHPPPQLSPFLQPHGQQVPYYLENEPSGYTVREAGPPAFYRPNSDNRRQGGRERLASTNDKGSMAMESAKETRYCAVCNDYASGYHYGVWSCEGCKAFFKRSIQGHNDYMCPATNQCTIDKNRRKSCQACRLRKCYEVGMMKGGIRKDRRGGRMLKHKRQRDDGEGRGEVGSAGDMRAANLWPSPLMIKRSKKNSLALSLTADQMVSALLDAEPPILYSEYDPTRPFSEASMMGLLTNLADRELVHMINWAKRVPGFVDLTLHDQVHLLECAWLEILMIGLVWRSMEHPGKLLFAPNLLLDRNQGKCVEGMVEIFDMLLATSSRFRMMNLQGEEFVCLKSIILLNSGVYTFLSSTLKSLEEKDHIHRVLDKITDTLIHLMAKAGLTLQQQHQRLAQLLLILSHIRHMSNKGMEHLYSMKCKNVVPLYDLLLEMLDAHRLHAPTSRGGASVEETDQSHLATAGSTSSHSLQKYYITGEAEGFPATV

[19] = molecular target: Sphingosine 1-phosphate receptor 2 (Homo sapiens, UniProt O95136); test: Dose Response Cell Based Assay for Agonists of the S1P2 Receptor of Purchased Analogues. [Related pubchem assays: 729, 843, 854, 736 ]; type: functional
[20] = molecular target: Sphingosine 1-phosphate receptor 3 (Homo sapiens, UniProt Q99500); test: Dose response cell-based high throughput screening assay for antagonists of the Sphingosine 1-Phosphate Receptor 3 (S1P3). [Related pubchem assays: 1429, 485 ]; type: functional
[21] = molecular target: 5-hydroxytryptamine receptor 1E (Homo sapiens, UniProt P28566); test: Counterscreen assay for S1P3 antagonists: Dose response cell-based high throughput screening assay to identify antagonists of the 5-Hydroxytryptamine Receptor Subtype 1E (5HT1E). [Related pubchem assays: 1429, 485 ]; type: functional
Sequence of 5-hydroxytryptamine receptor 1E (P28566 whole entry): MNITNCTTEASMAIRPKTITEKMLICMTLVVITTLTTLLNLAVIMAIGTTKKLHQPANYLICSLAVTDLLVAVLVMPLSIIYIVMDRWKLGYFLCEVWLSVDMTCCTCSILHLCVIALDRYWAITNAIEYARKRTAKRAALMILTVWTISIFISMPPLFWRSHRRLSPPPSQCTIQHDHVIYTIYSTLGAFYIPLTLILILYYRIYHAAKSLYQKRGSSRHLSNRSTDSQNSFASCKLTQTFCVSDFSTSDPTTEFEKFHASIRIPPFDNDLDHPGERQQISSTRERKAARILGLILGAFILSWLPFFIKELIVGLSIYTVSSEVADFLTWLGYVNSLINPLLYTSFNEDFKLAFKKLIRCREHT

T1 sequence (Q92731 whole entry): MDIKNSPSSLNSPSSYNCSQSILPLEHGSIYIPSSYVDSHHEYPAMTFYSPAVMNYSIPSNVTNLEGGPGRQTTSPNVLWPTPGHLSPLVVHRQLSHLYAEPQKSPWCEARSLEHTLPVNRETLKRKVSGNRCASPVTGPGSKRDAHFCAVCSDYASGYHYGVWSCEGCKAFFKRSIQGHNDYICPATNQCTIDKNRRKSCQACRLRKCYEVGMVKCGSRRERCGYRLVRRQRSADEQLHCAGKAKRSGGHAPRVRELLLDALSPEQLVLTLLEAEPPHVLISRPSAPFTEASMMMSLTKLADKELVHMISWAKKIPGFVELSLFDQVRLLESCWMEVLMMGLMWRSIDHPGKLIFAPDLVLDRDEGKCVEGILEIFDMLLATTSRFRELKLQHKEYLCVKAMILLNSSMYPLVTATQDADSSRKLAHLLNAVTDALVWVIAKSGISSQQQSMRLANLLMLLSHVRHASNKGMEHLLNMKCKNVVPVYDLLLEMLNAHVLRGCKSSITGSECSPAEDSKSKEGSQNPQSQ
Sequence of Sphingosine 1-phosphate receptor 3 (Q99500 whole entry): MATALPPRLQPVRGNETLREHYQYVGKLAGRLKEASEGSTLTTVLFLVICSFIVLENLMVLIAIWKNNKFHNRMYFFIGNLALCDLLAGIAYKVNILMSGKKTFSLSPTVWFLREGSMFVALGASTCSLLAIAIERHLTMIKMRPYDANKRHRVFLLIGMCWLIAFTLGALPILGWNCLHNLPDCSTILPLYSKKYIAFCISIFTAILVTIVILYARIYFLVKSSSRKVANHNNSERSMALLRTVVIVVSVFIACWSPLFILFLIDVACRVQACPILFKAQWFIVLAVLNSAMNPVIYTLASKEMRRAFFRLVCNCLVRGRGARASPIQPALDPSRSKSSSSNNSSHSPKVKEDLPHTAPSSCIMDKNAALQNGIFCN
Sequence of Sphingosine 1-phosphate receptor 1 (P21453 whole entry): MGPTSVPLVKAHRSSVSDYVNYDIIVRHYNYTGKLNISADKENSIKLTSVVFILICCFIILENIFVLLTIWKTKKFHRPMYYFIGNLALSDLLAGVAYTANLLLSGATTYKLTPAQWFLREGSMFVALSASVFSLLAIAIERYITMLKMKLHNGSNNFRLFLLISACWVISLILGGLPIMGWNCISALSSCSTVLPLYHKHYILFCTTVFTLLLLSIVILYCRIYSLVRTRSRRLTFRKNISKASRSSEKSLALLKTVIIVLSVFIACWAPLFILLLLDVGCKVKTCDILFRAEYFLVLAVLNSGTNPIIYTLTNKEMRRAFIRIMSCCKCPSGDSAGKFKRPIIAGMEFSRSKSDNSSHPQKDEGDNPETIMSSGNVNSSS
Sequence of Neuropeptide Y receptor type 1 (P25929 whole entry, the tested form may be a part): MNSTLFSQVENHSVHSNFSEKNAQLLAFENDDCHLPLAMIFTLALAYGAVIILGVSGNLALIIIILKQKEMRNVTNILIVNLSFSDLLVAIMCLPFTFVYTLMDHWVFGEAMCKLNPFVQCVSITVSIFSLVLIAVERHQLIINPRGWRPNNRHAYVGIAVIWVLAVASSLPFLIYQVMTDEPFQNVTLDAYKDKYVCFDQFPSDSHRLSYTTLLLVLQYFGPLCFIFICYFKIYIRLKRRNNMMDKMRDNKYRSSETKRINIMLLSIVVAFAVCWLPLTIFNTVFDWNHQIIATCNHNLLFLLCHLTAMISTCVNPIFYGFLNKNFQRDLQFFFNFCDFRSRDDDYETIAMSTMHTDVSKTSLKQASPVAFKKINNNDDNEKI
Sequence of Glutathione-S-transferase (Q26513 whole entry): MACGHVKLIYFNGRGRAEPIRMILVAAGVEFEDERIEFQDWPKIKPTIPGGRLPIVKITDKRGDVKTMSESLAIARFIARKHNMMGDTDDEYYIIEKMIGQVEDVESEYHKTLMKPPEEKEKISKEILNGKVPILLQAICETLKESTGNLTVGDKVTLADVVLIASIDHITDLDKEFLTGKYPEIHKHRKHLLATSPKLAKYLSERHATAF
Sequence of Genome polyprotein (P29990 2492-3391 limits assumed): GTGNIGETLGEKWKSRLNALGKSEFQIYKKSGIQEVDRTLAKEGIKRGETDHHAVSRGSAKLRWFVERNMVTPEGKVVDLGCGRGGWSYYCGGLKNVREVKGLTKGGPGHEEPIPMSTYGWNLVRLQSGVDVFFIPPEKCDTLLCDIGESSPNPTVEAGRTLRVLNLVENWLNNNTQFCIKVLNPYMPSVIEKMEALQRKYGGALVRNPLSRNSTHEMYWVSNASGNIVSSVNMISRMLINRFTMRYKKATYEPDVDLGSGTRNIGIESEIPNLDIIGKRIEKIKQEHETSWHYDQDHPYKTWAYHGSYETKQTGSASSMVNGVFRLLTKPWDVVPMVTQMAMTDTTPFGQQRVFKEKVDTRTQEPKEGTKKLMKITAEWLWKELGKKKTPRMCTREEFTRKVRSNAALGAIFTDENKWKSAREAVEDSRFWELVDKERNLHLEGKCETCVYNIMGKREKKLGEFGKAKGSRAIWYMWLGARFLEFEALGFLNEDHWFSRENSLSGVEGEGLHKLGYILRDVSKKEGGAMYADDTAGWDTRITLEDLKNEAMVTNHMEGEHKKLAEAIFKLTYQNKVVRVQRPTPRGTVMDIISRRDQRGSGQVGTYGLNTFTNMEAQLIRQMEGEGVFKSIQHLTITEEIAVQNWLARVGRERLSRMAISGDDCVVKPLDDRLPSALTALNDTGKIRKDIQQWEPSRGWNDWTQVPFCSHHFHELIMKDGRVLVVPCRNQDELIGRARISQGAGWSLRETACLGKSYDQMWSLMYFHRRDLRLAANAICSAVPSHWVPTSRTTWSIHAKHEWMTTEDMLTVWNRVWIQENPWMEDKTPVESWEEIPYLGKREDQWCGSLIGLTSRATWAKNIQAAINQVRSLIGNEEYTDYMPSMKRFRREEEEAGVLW
Sequence of Neuropeptide Y receptor type 2 (P49146 whole entry): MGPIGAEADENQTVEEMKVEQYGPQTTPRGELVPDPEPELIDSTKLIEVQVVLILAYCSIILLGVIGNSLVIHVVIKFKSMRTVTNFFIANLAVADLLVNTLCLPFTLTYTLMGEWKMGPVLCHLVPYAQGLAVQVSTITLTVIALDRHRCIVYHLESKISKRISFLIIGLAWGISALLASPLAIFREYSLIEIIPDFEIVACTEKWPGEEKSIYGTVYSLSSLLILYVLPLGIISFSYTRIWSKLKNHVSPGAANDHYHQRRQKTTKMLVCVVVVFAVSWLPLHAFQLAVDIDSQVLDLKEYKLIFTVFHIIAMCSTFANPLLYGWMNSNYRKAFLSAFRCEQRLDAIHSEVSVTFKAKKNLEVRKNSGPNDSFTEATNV
Sequence of Sphingosine 1-phosphate receptor 2 (O95136 whole entry): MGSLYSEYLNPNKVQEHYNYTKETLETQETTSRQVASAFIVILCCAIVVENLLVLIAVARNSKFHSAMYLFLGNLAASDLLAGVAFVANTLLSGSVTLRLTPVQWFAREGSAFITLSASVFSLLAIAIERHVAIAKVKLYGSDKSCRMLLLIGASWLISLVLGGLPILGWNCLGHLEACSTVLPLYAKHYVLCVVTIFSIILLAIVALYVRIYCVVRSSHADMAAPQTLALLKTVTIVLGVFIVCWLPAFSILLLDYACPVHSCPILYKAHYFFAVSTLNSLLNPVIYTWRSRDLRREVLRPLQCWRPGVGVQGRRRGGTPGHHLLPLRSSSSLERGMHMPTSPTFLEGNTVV
Sequence of Sphingosine 1-phosphate receptor 4 (O95977 whole entry): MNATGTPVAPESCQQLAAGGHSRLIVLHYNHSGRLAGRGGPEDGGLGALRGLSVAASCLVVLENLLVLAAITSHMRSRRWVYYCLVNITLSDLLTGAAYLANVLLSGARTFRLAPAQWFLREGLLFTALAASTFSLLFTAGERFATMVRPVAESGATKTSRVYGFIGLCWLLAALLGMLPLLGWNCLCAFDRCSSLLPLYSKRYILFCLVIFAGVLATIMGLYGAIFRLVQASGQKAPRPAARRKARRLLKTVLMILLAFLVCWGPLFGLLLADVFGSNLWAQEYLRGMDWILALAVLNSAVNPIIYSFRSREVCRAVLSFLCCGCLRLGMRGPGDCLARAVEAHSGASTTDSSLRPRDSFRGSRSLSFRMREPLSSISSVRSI

SMILES: CS(=O)(=O)c1nc(-c2cccs2)cc(C(F)(F)F)n1
EC50 [1]: 2.57 µM (active)
IC50 [2]: 22.9 µM (not active)
EC50 [3]: 2.73 µM (active)
EC50 [4]: 2.66 µM (active)
EC50 [5]: 3.19 µM (active)
IC50 [6]: 0.989 µM (active)
EC50 [7]: 4.62 µM (inconclusive)
EC50 [8]: > 38 µM (not active)

SMILES: C=CCN(CC=C)C(=S)NC(=O)Cc1cccc2ccccc12
IC50 [9]: 31.6 µM (active)

SMILES: Cc1ccc(-c2nnc(S)n2/N=C/C=C/c2ccccc2[N+](=O)[O-])cc1
IC50 (Bcl-2-like protein 10): > 100 µM (inactive)
EC50 (Estrogen receptor): 6.52 µM (active)

SMILES: CCCn1nc2ccccc2c1P(=O)(N1CCOCC1)N1CCOCC1
IC50 [20]: > 50 µM (not active)
IC50 [21]: > 50 µM (not active)

The next lines start with results.

IC50 (Estrogen receptor beta [10]): 0.348 µM (not active)
IC50 [11]: > 100 µM (active)
IC50 (Estrogen receptor beta [12]): 8.75 µM (active)
IC50 (Caspase-3): 14 µM (active)
IC50 (Genome polyprotein): > 100 µM (active)
IC50 (Bcl-2-like protein 10): 11.4 µM (active)
IC50 [15]: 23.9 µM (active)
IC50 [16]: 8.69 µM (active)
SMILES: Cc1ccc2c(c1)c(=O)c1c3n2CCN(C(=O)CCl)C3CC1 (configuration not stated)
CC50 [13]: 10.9 µM (active)
CC50 (Vero): 13.1 µM (active)
IC50 [14]: 14.2 µM (active)

IC50 [17]: 13.7 µM (not active)
IC50 [18]: 8.58 µM (active)
SMILES: O=C(CN(Cc1ccc2c(c1)OCO2)C(=O)CSc1nc2ccccc2o1)NC1CCCCC1

EC50 [19]: > 30 µM (not active)
SMILES: Cc1noc(C)c1C(=O)OCC(=O)c1cc(C)n(Cc2ccccc2)c1C
